Experiments:
Type in all cases: cell-based
rat SVCT1 [1] = molecular target: T1, rat SVCT1 (Rattus norvegicus, UniProt Q9WTW7); assay: Two-microelectrode voltage-clamp of Xenopus oocytes expressing rat SVCT1; conditions: for evoked current / substrate selectivity (in words): oocytes expressing SVCT1
T1 construct: expressed in transfected cells; host or cells: Xenopus laevis oocytes injected with cRNA
Protocol: Rat SVCT1 and SVCT2 clones were obtained by isolating SVCT1 cDNA from rat kidney by expression cloning as described in Hediger et al., Methods Enzymol. 296:17-52 (1998). The SVCT2 cDNA was subsequently isolated by PCR-based homology screening of a rat brain cDNA library. […] Radiotracer and voltage-clamp experiments were performed (at 22° C.) in Xenopus oocytes two to seven days after injection with ˜25 ng of SVCT1 or SVCT2 cRNA synthesized in vitro. Radiotracer uptake was determined by incubating 6-10 oocytes for 30 or 60 min in standard 100 mM Na^+ or Na^+-free media with 10-600 μM L-[^14C]ascorbic acid.
(§1) Functional characterization of SVCT1 and SVCT2 in Xenopus oocytes—Oocytes were isolated from Xenopus laevis (under 2-aminoethylbenzoate anaesthesia), treated with collagenase A and stored at 18° C. in modified Barths' medium. Oocytes were injected with ≈25 ng of SVCT1 or SVCT2 cRNA synthesized in vitro, or water only (control), and incubated 2-7 days before radiotracer or voltage-clamp experiments were performed. Standard Na^+ uptake medium comprised 100 mM NaCl, 2 mM KCl, 1 mM CaCl2, 1 mM MgCl2, 10 mM HEPES (pH 7.5 with Tris base). For Na^+-free or low-Na^+ media, NaCl was replaced by equimolar choline chloride; likewise, Cl^− was replaced by gluconate for Cl^−-free medium. For pH-sensitivity experiments, Na^+ media were buffered at pH 5.5-8.0 using 0-5 mM MES, 0-5 mM HEPES and 0-5 mM Tris base. L-Ascorbic acid-containing solutions were freshly-prepared (without dithiothreitol) and used immediately.
(§2) Radiotracer uptake was determined by incubating 6-10 oocytes for 30 or 60 min in standard Na^+ or Na^+-free media (at 22° C.) with 10-600 μM L-[1-^14C]ascorbic acid (final specific activity 0.3 GBq/mmol). Oocytes were solubilized with 10% SDS and [^14C]-content was measured by liquid scintillation counting. A two-microelectrode voltage-clamp was used to measure currents in control oocytes and oocytes injected with rat SVCT1 or rat SVCT2 cRNA. Microelectrodes (resistance 0.5-5 MΩ) were filled with 3 M KCl. Oocytes were superfused at 22° C. in standard Na^+ medium and clamped at a holding potential (Vh) of −50 mV. For continuous current monitoring at Vh=−50 mV, the current was low-pass filtered at 20 Hz (sampling at 1 Hz). Additionally, step-changes in membrane potential (Vm) were applied (from +50 mV to −150 mV in 20-mV increments), each for a duration of 100 ms, before and after the addition of substrate; current was low-pass filtered at 500 Hz and digitized at 5 kHz. Test solutions were always washed out with substrate-free medium (100 mM choline chloride) at pH 7.5 for several minutes. Steady-state data (obtained by averaging the points over the final 16.7 ms at each Vm step when step-changes were applied) were fitted to equation (1) below, for which I is the evoked current (i.e., the difference in steady-state current measured in the presence and absence of substrate), Imax the derived current maximum, S the concentration of substrate S (Na^+ or L-ascorbic acid),
(§3) [formula] the substrate concentration at which current was half-maximal, and nH the Hill coefficient for S. (For radiotracer experiments, I was replaced with velocity V and Imax replaced with the derived maximal velocity, Vmax.)

human SVCT1 [2] = molecular target: T2, human SVCT1 (Homo sapiens, UniProt Q9UHI7); assay: L-[14C]ascorbic acid radiotracer uptake in Xenopus oocytes expressing human SVCT1; conditions: data not shown
T2 construct: expressed in transfected cells; host or cells: Xenopus laevis oocytes injected with cRNA (vector pTLN2)
Protocol: Functional characterization in Xenopus oocytes—SVCT1 and SVCT2 cDNAs were subcloned into the pTLN2 vector (to improve functional expression in oocytes) and used for cRNA synthesis in vitro using the MEGAscript kit and T7 RNA polymerase (from Ambion). Oocytes were isolated from Xenopus laevis, treated with collagenase A and maintained at 18° C. in modified Barths' medium. Oocytes were injected with 15 ng SVCT1 or SVCT2 cRNA or water only. The radiotracer uptake and voltage-clamp experiments described below were conducted 2-5 days post-injection in standard medium of composition 100 mM NaCl, 2 mM KCl, 1 mM CaCl2, 1 mM MgCl2, and 10 mM HEPES (buffered to pH 7.5 with Tris base). For low-Na^+ or Na^+-free media, NaCl was replaced with choline chloride. For pH-dependence experiments, Na^+ media were buffered to between pH 5.5 and pH 8.0 using 0-5 mM MES, 0-5 mM HEPES and 0-5 mM Tris base. L-Ascorbic acid-containing solutions were always freshly prepared and used immediately. […] Oocytes were solubilized with 10% SDS and carbon-14 content measured by liquid scintillation counting. A two-microelectrode voltage-clamp was used to measure currents associated with SVCT1 expressed in oocytes. Oocytes were superfused at 22° C. in standard Na^+ medium and clamped at −50 mV. Current was continuously monitored by sampling at 1 Hz. Test solutions were always washed out with substrate-free, Na^+-free medium at pH 7.5 for several minutes. Once again, saturation kinetics data were fit to a modified Hill equation in which I and Imax were replaced by uptake V and maximal velocity Vmax for analysis of radiotracer uptake data.

human SVCT1 [3] = molecular target: T2, human SVCT1; assay: Two-microelectrode voltage-clamp of Xenopus oocytes expressing human SVCT1; conditions: for transport / substrate selectivity (in words): 500 μM, −50 mV
Protocol: Functional characterization in Xenopus oocytes—SVCT1 and SVCT2 cDNAs were subcloned into the pTLN2 vector (to improve functional expression in oocytes) and used for cRNA synthesis in vitro using the MEGAscript kit and T7 RNA polymerase (from Ambion). Oocytes were isolated from Xenopus laevis, treated with collagenase A and maintained at 18° C. in modified Barths' medium. Oocytes were injected with 15 ng SVCT1 or SVCT2 cRNA or water only. The radiotracer uptake and voltage-clamp experiments described below were conducted 2-5 days post-injection in standard medium of composition 100 mM NaCl, 2 mM KCl, 1 mM CaCl2, 1 mM MgCl2, and 10 mM HEPES (buffered to pH 7.5 with Tris base). For low-Na^+ or Na^+-free media, NaCl was replaced with choline chloride. For pH-dependence experiments, Na^+ media were buffered to between pH 5.5 and pH 8.0 using 0-5 mM MES, 0-5 mM HEPES and 0-5 mM Tris base. L-Ascorbic acid-containing solutions were always freshly prepared and used immediately. Radiotracer uptake was determined by incubating 8-12 oocytes for 30 min (within the time-course of linear uptake) in standard Na^+, low-Na^+ or Na^+-free media with 10-500 μM L-[1-^14C]ascorbic acid (final specific activity ≈0.3 GBq/mmol). Oocytes were solubilized with 10% SDS and carbon-14 content measured by liquid scintillation counting. A two-microelectrode voltage-clamp was used to measure currents associated with SVCT1 expressed in oocytes. Oocytes were superfused at 22° C. in standard Na^+ medium and clamped at −50 mV. Current was continuously monitored by sampling at 1 Hz. Test solutions were always washed out with substrate-free, Na^+-free medium at pH 7.5 for several minutes. Once again, saturation kinetics data were fit to a modified Hill equation in which I and Imax were replaced by uptake V and maximal velocity Vmax for analysis of radiotracer uptake data.

rat SVCT1 [4] = molecular target: T1, rat SVCT1; assay: L-[14C]ascorbic acid radiotracer uptake in Xenopus oocytes expressing rat SVCT1
Protocol: (§4) Rat SVCT1 and SVCT2 clones were obtained by isolating SVCT1 cDNA from rat kidney by expression cloning as described in Hediger et al., Methods Enzymol. 296:17-52 (1998). The SVCT2 cDNA was subsequently isolated by PCR-based homology screening of a rat brain cDNA library. A 2.5-kb rabbit cDNA with 96% identity to residues 96-505 of the rat SVCT2 was obtained by RT-PCR. Radiotracer and voltage-clamp experiments were performed (at 22° C.) in Xenopus oocytes two to seven days after injection with ˜25 ng of SVCT1 or SVCT2 cRNA synthesized in vitro. Radiotracer uptake was determined by incubating 6-10 oocytes for 30 or 60 min in standard 100 mM Na^+ or Na^+-free media with 10-600 μM L-[^14C]ascorbic acid.
as §1, §2, §3

rat SVCT2 = molecular target: T3, rat SVCT2 (Rattus norvegicus, UniProt Q9WTW8); assay: L-[14C]ascorbic acid radiotracer uptake in Xenopus oocytes expressing rat SVCT2
T3 construct: expressed in transfected cells; host or cells: Xenopus laevis oocytes injected with cRNA (vector pTLN2)
Protocol: as §4, §1
as §2, with “Additionally, step-changes in membrane potential (Vm) were applied (from +50 mV to −150 mV in 20-mV increments), each for a duration of 100 ms, before and after the addition of substrate; current was low-pass filtered at 500 Hz and digitized at 5 kHz. Test solutions were always washed out with substrate-free medium (100 mM choline chloride) at pH 7.5 for several minutes.” left out, “acid), […]” for “acid),”

T1 sequence (Q9WTW7 whole entry): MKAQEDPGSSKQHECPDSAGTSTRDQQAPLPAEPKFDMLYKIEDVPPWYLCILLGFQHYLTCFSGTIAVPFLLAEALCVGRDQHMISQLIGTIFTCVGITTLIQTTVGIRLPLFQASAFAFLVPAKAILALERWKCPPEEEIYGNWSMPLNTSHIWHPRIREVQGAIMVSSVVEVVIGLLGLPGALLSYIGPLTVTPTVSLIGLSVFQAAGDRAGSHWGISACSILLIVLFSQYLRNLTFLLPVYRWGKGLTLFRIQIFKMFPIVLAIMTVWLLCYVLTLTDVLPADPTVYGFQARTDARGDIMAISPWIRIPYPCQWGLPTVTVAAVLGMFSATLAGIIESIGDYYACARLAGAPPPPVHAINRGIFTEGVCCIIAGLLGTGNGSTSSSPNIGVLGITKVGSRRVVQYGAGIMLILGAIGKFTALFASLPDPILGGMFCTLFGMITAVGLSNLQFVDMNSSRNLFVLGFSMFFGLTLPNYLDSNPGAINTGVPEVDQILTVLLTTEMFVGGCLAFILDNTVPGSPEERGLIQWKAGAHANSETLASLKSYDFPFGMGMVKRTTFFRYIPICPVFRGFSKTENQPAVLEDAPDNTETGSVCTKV
T2 sequence (Q9UHI7 whole entry): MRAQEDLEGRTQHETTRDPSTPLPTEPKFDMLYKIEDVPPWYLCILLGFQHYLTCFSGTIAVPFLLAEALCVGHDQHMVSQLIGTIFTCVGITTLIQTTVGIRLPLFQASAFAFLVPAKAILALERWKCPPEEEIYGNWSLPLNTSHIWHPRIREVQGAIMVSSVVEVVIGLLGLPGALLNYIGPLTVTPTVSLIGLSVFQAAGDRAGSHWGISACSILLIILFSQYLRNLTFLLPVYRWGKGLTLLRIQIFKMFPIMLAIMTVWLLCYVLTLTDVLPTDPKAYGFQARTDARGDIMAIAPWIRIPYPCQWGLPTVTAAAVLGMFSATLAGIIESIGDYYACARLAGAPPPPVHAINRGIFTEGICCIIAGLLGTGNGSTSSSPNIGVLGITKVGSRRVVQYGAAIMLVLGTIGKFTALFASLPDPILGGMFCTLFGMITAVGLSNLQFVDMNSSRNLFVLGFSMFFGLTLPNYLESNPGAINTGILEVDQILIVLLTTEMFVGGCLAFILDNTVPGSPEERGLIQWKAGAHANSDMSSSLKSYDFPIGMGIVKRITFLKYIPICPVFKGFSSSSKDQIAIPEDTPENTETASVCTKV
T3 sequence (Q9WTW8 whole entry): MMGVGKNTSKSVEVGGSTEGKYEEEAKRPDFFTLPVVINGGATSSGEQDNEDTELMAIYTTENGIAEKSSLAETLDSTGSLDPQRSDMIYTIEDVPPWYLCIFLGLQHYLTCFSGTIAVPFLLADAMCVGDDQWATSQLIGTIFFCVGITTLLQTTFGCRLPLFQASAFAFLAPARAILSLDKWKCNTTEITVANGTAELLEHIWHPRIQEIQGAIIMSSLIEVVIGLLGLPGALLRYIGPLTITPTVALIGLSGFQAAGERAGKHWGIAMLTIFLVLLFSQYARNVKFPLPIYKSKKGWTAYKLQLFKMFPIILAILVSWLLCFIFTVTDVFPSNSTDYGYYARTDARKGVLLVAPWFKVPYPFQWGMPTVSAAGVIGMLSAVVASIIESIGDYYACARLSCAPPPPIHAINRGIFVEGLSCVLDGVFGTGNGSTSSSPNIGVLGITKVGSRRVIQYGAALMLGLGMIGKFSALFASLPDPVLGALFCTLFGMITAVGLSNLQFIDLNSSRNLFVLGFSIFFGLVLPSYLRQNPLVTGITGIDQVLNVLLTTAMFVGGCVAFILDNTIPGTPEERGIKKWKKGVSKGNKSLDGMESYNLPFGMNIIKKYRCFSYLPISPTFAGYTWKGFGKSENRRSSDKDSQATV

| evoked current / substrate selectivity (in words) (rat SVCT1 [1]) | inhibition of L-[14C]ascorbic acid uptake (in words) (human SVCT1 [2]) | transport / substrate selectivity (in words) (human SVCT1 [3]) | inhibition of SVCT1-mediated L-[14C]ascorbic acid uptake (in words) (rat SVCT1 [4]) | inhibition of SVCT2-mediated L-[14C]ascorbic acid uptake (in words) (rat SVCT2) | Structure (SMILES) | other results |
| --- | --- | --- | --- | --- | --- | --- |
| tiny outward currents | not significantly inhibited | – | modest inhibition | modest inhibition | CC(=O)Oc1ccccc1C(=O)O [aspirin, acetyl-salicylic acid] | – |
| – | – | barely transported | – | – | O=C1O[C@H]([C@@H](O)CO)C(=O)C1=O [dehydroascorbic acid] | evoked current relative to that for L-ascorbic acid (rat SVCT1 [1]; substrate selectivity, FIG. 4F): ≈ 5% |
| tiny outward currents | – | – | modest inhibition | modest inhibition | O=C(CCc1ccc(O)cc1)c1c(O)cc(O)cc1O[C@@H]1O[C@H](CO)[C@@H](O)[C@H](O)[C@H]1O [phlorizin] | – |

Continued, compound first:

| Structure (SMILES) | evoked current / substrate selectivity (in words) (rat SVCT1 [1]) | inhibition of L-[14C]ascorbic acid uptake (in words) (human SVCT1 [2]) | transport / substrate selectivity (in words) (human SVCT1 [3]) | inhibition of SVCT1-mediated L-[14C]ascorbic acid uptake (in words) (rat SVCT1 [4]) | inhibition of SVCT2-mediated L-[14C]ascorbic acid uptake (in words) (rat SVCT2) | other results |
| --- | --- | --- | --- | --- | --- | --- |
| O=C[C@H](O)[C@@H](O)[C@H](O)[C@H](O)CO [D-glucose] | excluded | not significantly inhibited | excluded | – | – | – |
| O=C(CCc1ccc(O)cc1)c1c(O)cc(O)cc1O [phloretin] | sizable outward current | – | – | inhibited | inhibited | block of the inward current evoked by L-ascorbic acid (rat SVCT1 [1]; FIG. 4H): blocked; Ki (rat SVCT1 [1]; uniport mode, absence of L-ascorbic acid, read-out: apparent Ki, inhibition of the Na^+ leak current): ~100 µM; mode of inhibition of L-[14C]ascorbic acid uptake (rat SVCT1 [4]; Dixon analysis): non-competitive inhibitor; Ki (rat SVCT1 [4]; FIG. 4I, read-out: Ki, Dixon analysis of L-[14C]ascorbic acid uptake): ~65 µM; inhibition of L-[14C]ascorbic acid uptake (human SVCT1 [2]): ≈ 80%; inhibition of the L-ascorbic acid-evoked current (in words) (human SVCT1 [3]; FIG. 8A, 100 μM phloretin): potent inhibitor; block of the Na^+ leak current (in words) (human SVCT1 [3]; absence of L-ascorbic acid or other substrate): blocked |
| O=c1[nH]c(=O)c2[nH]cnc2[nH]1 [xanthine] | tiny outward currents | – | – | modest inhibition | modest inhibition | – |

Source: patent US7371536B2, “Methods for transporting vitamin C” (priority 1999, dated 2008)
